Measured values: ChEMBL document CHEMBL4043105, “Design and synthesis of potent and orally active GPR4 antagonists with modulatory effects on nociception, inflammation, and angiogenesis” (Bioorg Med Chem, 2017)

Legend:
Rattus norvegicus [1] = species on record: Rattus norvegicus; settings: in vivo, po, 3 mg/kg
Rattus norvegicus [2] = species on record: Rattus norvegicus; settings: in vivo, po, 3 mg/kg; remark: listed apart in the source
in vivo [3] = settings: Sprague-Dawley, rat, iv, 1 mg/kg
in vivo [4] = settings: Sprague-Dawley, rat, iv, 1 mg/kg; remark: listed apart in the source
in vivo [5] = settings: Sprague-Dawley, rat, po, 3 mg/kg

AUC/dose (Rattus norvegicus [1]): 2196 µg·min/mL | Cmax/dose (Rattus norvegicus [2]): 193 nM | clearance (in vivo [3]): 15 mL/min/kg | half-life (in vivo [4]): 5.6 h | bioavailability (in vivo [5]): 86%
SMILES: CCc1nc2c(C)cc(C)nc2n1Cc1ccc(/C=C/CN2CCN(C(C)C)CC2)cc1
